According to paper PMC5746119, “Pharmacologic characterization of SHR8443, a novel dual inhibitor of phosphatidylinositol 3-kinase and mammalian target of rapamycin” (Oncotarget, 2017):
Read-outs that look alike come from different tables or passages of the source.

What was measured:
[1] = tested on: trastuzumab-resistant BT-474/trastuzumab xenografts; assay: Tumor xenograft growth inhibition; type: in vivo, Balb/cA-nude mice
Experimental: (§1) Female, 5–6-wk-old Balb/cA-nude mice were purchased from Shanghai Laboratory Animal Center, Chinese Academy of Sciences (Shanghai, China). […] Tumor volume was calculated as (length × width^2)/2.

[2] = tested on: panel of human tumor cell lines; assay: Cell proliferation assay (SRB), panel of human tumor cell lines; type: cell-based; conditions: 72 h
Experimental: (§2) The following human tumor cell lines were obtained from the American Type Culture Collection (Manassas, VA, USA): breast tumor cell lines, MDA-MB-231, MDA-MB-435, MDA-MB-468, BT-474 and MCF7; lung tumor cell lines, A549 and Calu-3; ovarian tumor cell lines, SK-OV-3 and OVCAR3; colon tumor cell lines, SW620 and COLO205; glioma cell line, U-87MG; prostate tumor cell line, PC-3; and melanoma cell line, A375. All cell lines were cultured according to instructions provided by the American Type Culture Collection. The ovarian tumor cell line A2780 was obtained from the National Cancer Institute (Bethesda, MD, USA) and cultured according to the instructions provided. The dabrafenib- and trametinib-resistant A375 cell lines, A375/DR and A375/TR, respectively, were established by culturing parental cells in medium containing gradually increasing concentrations of dabrafenib (0.1–5,000 nM) or trametinib (0.05–50 nM) over the course of 12 months. […] All the cells have been tested and authenticated by Genesky Biotechnologies. Inc. (Shanghai, China) using fluorescent amplified restriction fragment polymorphism (FAFLP) method.
(§3) Tumor cells were seeded in 96-well plates and treated with serial dilutions of drugs alone or as a combination of two drugs. After a 72-h incubation, cell proliferation was evaluated by sulforhodamine B (SRB; Sigma) assay. […] The CI value which defines the interaction between two drugs as synergistic (CI < 0.95), additive (CI = 0.95–1.05) or antagonistic (CI > 1.05), was determined on the basis of the median-effect principle using CalcuSyn software.

A549 cells = assay: Autophagy, LC3 immunoblotting; type: cell-based, human; conditions: 48 h
Experimental: (§4) After drug treatment, cells were lysed in sodium dodecyl sulfate (SDS) sample buffer (100 mM Tris-HCl pH 6.8, 2% SDS, 20% glycerol, 1 mM dithiothreitol). Cell lysates containing equal amounts of protein were resolved by SDS-PAGE and transferred to polyvinylidene difluoride membranes. Blots were probed with primary antibodies, and then incubated with the appropriate secondary antibodies (Millipore). Immunoreactive bands were visualized using enhanced chemiluminescence reagents (Millipore).

[3] = tested on: MCF7, MDA-MB-468, COLO205, and A549 cell lines; assay: Cell cycle distribution by flow cytometry; type: cell-based, human; conditions: 24 h treatment
Experimental: (§5) Cells were harvested and fixed in ice-cold 70% ethanol at −20°C overnight. Fixed cells were then treated with 50 μg/mL of propidium iodide and RNase A at 37°C for 30 min. The cell cycle distribution was measured using a FACScan flow cytometer (BD Biosciences, San Jose, CA, USA) and analyzed with ModFit LT Mac V3.0 software. Apoptosis was measured using a FITC Annexin V Apoptosis Detection Kit (BD Biosciences) according to the manufacturer's instructions. Fluorescence was acquired with an Accuri C6 Plus instrument (BD Biosciences).

mTOR = mTOR (Homo sapiens, UniProt P42345); assay: mTOR kinase activity assay (K-LISA mTOR Activity Kit); type: biochemical; conditions: means ± SD (n = 3)
Experimental: (§6) PI3K enzyme-linked immunosorbent assays (ELISAs) were performed using the PI3Kinase Activity/Inhibitor Assay Kit (Millipore, Bedford, MA, USA) according to the manufacturer's instructions as described previously. mTOR kinase activity was assayed using the K-LISA mTOR Activity Kit (Calbiochem, Bedford, MA, USA) according to the manufacturer's instructions.

[4] = tested on: PI3K/mTOR signaling (AKT, S6, ERK phosphorylation); assay: Western blotting of PI3K/mTOR signaling in tumor cell lines; type: cell-based, human
Experimental: as §4

[5] = Tolerability (deaths, body weight) in xenograft-bearing mice; type: in vivo, Balb/cA-nude mice; conditions: xenograft-bearing mice during the course of treatment
Experimental: as §1

A375 cells = assay: Cell proliferation assay (SRB); type: cell-based; conditions: Homo sapiens, A-375, 72 h
Experimental: The following human tumor cell lines were obtained from the American Type Culture Collection (Manassas, VA, USA): breast tumor cell lines, MDA-MB-231, MDA-MB-435, MDA-MB-468, BT-474 and MCF7; lung tumor cell lines, A549 and Calu-3; ovarian tumor cell lines, SK-OV-3 and OVCAR3; colon tumor cell lines, SW620 and COLO205; glioma cell line, U-87MG; prostate tumor cell line, PC-3; and melanoma cell line, A375. All cell lines were cultured according to instructions provided by the American Type Culture Collection. The ovarian tumor cell line A2780 was obtained from the National Cancer Institute (Bethesda, MD, USA) and cultured according to the instructions provided. The dabrafenib- and trametinib-resistant A375 cell lines, A375/DR and A375/TR, respectively, were established by culturing parental cells in medium containing gradually increasing concentrations of dabrafenib (0.1–5,000 nM) or trametinib (0.05–50 nM) over the course of 12 months. […]
as §3

[6] = Pharmacokinetic study in U-87MG tumor-bearing mice; type: in vivo, Balb/cA-nude mice; conditions: single oral dose 10 mg/kg; for Cmax: female, Balb/cA-nude, mouse
Experimental: as §1
Pharmacokinetic/pharmacodynamic studies were carried out as described previously. Mice bearing U-87MG tumors received a single oral dose of 10 mg/kg SHR8443 or vehicle, and tumor tissues and blood were collected at different times. Concentrations of SHR8443 in plasma and tissue were determined by HPLC/tandem mass spectrometry. Tumor samples were analyzed by Western blotting. Animal experiments were conducted in accordance with the Institutional Animal Care and Use Committee guidelines of Shanghai Institute of Materia Medica, Chinese Academy of Sciences.

[7] = tested on: MCF7 and MDA-MB-468 cells; assay: Apoptosis by annexin V-FITC/PI staining and FACS; type: cell-based, human; conditions: 72 h
Experimental: as §5

[8] = tested on: A375/TR (trametinib-resistant) cells; assay: Cell proliferation assay (SRB); type: cell-based, human; conditions: for resistance factor (RF): A375/TR versus parental A375
Experimental: as §2, §3

[9] = tested on: A375/DR (dabrafenib-resistant) cells; assay: Cell proliferation assay (SRB); type: cell-based, human; conditions: for resistance factor (RF): A375/DR versus parental A375
Experimental: as §2, §3

[10] = tested on: panel of other protein kinases; assay: Panel of other protein kinases; type: biochemical; conditions: 1000 nM; data not shown
PI3Kγ = PI3Kγ (Homo sapiens, UniProt P48736); assay: PI3K ELISA (PI3Kinase Activity/Inhibitor Assay Kit); type: biochemical; conditions: PI3Kγ (p110γ); means ± SD (n = 3)
PI3Kγ, sequence (P48736 whole entry): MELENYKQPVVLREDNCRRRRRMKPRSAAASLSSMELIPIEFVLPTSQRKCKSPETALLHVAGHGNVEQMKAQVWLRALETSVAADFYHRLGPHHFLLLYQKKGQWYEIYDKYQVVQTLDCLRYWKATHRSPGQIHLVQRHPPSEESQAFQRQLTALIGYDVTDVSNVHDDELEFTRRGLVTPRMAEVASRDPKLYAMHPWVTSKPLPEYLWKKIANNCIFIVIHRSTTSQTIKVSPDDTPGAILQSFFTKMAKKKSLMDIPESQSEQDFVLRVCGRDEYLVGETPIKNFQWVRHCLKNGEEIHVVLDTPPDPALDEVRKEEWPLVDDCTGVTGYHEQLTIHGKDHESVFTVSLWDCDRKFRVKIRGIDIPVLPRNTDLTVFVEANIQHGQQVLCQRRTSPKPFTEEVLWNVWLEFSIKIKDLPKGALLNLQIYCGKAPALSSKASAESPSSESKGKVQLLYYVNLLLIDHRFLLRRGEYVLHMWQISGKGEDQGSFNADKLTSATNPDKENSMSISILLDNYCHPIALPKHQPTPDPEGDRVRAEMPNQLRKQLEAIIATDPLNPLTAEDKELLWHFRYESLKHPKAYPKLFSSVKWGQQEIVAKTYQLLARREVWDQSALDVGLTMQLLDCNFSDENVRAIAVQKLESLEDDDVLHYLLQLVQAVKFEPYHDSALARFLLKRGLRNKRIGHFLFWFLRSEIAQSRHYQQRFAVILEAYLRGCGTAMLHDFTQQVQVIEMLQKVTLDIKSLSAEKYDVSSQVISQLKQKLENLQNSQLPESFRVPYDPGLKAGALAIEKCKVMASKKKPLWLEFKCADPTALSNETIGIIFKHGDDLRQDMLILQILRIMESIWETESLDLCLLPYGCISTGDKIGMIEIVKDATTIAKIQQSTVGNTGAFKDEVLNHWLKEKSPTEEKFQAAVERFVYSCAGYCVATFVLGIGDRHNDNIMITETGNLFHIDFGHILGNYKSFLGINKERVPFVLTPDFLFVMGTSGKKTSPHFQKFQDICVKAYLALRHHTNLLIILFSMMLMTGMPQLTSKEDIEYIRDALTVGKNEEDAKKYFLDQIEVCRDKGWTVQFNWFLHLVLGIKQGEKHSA
Experimental: as §6

PI3Kδ = PI3Kδ (Homo sapiens, UniProt O00329); assay: as above; type: biochemical; conditions: PI3Kδ (p110δ); means ± SD (n = 3)
PI3Kδ, sequence (O00329 whole entry): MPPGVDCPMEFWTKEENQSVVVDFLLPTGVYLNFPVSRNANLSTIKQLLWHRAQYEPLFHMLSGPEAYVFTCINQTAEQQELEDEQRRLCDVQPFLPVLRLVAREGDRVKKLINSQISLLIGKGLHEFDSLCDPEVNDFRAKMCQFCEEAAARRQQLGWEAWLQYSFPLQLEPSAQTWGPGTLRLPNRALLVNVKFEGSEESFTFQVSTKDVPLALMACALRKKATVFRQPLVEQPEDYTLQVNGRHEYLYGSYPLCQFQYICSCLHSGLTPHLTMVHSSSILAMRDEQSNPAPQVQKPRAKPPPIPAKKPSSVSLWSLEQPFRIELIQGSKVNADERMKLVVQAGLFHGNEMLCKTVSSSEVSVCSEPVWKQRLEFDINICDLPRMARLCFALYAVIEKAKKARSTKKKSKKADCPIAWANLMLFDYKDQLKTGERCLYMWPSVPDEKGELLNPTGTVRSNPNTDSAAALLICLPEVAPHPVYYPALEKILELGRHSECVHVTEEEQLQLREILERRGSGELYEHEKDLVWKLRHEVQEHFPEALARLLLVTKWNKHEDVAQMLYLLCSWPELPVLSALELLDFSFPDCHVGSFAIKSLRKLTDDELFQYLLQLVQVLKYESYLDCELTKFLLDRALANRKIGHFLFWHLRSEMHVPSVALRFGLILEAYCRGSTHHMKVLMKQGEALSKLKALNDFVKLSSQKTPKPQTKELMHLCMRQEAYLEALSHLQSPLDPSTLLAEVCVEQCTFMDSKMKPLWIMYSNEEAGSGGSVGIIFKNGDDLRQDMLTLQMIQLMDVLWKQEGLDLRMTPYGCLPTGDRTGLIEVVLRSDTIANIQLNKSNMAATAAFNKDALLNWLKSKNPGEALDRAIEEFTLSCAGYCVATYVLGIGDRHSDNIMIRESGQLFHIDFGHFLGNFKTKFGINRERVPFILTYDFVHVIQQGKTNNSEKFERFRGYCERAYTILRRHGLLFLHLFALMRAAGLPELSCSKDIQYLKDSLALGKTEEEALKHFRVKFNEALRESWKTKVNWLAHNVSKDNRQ
PI3Kδ, sequence (P27986 whole entry partner): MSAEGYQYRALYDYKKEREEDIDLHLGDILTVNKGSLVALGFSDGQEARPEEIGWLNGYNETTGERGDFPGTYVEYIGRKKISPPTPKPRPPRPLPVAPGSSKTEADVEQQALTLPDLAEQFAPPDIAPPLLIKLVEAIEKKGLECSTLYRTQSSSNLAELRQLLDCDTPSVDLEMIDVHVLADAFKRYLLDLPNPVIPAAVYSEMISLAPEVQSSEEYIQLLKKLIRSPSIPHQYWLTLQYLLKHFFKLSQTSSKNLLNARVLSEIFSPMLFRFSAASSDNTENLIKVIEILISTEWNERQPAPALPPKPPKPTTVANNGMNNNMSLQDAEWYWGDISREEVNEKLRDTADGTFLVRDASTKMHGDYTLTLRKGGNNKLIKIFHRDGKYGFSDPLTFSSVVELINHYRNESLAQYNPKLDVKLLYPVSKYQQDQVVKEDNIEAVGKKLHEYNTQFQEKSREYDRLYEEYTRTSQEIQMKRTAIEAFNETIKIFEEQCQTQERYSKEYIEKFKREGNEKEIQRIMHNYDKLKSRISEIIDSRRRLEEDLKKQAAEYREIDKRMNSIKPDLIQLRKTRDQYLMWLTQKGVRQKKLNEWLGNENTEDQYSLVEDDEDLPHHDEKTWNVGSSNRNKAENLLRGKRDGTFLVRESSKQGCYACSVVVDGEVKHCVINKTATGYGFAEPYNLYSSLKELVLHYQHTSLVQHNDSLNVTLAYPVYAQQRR
Experimental: as §6

PI3Kα = PI3Kα (Homo sapiens, UniProt P42336); assay: as above; type: biochemical; conditions: PI3Kα (p110α); means ± SD (n = 3)
PI3Kα, sequence (P42336 whole entry): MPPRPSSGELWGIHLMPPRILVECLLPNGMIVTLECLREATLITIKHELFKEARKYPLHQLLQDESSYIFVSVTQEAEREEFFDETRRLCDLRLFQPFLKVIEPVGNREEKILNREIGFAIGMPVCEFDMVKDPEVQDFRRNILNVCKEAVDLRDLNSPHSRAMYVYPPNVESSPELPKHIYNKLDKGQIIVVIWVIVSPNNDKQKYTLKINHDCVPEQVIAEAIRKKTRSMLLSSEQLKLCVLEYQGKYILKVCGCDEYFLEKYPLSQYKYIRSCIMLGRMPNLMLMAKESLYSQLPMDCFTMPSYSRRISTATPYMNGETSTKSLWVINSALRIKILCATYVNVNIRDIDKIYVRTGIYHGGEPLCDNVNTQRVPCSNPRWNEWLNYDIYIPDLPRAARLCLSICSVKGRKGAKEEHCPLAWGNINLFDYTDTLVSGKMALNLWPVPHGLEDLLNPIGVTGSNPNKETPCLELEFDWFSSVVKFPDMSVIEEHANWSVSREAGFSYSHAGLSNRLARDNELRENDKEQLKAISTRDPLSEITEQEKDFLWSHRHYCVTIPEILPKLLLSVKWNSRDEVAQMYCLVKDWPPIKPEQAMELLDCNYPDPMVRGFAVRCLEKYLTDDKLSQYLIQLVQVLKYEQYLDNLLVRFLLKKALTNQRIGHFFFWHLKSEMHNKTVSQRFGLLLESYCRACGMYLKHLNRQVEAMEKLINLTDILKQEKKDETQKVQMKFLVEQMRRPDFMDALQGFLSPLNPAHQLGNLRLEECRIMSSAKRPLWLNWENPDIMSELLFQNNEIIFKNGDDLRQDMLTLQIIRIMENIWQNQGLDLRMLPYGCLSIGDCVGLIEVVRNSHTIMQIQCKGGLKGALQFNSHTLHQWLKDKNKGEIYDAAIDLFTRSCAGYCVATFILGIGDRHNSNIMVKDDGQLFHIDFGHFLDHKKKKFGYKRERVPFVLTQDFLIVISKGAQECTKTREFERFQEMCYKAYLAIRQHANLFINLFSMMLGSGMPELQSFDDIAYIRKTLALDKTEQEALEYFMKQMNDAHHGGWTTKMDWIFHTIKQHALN
PI3Kα, sequence (P27986 whole entry partner): as the sequence (P27986 whole entry partner) above
Experimental: as §6

PI3Kβ = PI3Kβ (Homo sapiens, UniProt P42338); assay: as above; type: biochemical; conditions: PI3Kβ (p110β); means ± SD (n = 3)
PI3Kβ, sequence (P42338 whole entry): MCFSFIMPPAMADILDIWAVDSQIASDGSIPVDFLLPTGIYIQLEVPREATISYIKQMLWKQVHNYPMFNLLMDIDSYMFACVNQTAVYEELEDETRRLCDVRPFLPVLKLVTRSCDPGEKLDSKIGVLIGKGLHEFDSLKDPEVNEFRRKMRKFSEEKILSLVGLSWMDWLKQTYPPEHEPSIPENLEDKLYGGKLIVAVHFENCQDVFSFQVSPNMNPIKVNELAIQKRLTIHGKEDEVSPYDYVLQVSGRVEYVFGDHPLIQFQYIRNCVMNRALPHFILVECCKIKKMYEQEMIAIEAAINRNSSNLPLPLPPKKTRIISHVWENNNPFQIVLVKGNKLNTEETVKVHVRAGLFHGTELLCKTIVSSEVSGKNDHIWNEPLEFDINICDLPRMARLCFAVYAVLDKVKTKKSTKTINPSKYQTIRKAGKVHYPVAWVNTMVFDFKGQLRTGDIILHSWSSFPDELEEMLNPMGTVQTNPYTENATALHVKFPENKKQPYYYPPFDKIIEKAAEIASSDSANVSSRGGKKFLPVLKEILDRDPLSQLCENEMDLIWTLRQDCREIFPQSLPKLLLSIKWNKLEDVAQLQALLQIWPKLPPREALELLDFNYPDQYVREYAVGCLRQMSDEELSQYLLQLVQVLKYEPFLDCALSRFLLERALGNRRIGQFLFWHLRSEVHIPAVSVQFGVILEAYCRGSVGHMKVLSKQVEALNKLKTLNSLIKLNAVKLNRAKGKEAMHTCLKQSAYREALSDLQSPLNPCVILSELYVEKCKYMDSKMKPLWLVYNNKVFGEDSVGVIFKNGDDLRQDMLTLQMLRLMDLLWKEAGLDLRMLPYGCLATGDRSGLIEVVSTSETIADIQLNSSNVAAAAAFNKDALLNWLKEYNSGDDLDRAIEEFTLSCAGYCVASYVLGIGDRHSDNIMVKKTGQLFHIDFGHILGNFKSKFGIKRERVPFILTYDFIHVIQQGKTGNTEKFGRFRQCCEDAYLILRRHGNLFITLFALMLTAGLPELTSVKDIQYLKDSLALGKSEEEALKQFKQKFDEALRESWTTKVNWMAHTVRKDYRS
PI3Kβ, sequence (P27986 whole entry partner): as the sequence (P27986 whole entry partner) above
Experimental: as §6

BT-474 xenografts = assay: Tumor xenograft growth inhibition; type: in vivo, Balb/cA-nude mice
Experimental: as §1

U-87MG xenografts = assay: Tumor xenograft growth inhibition; type: in vivo, Balb/cA-nude mice
Experimental: as §1

PC-3 xenografts = assay: Tumor xenograft growth inhibition; type: in vivo, Balb/cA-nude mice; conditions: 30 mg/kg oral daily, final treatment day
Experimental: as §1

[11] = tested on: KRAS mutant A549 xenografts; assay: Tumor xenograft growth inhibition; type: in vivo, Balb/cA-nude mice; conditions: 15 mg/kg oral daily
Experimental: as §1

[12] = 30 mg/kg oral daily, final treatment day

Cn1c(=O)n(-c2ccc(C(C)(C)C#N)cc2)c2c3cc(-c4cnc5ccccc5c4)ccc3ncc21 [BEZ235, reference compound]
tumor growth inhibition (TGI) ([1]; 60 mg/kg oral daily): 39%

CNC(=O)Nc1ccc(-c2ccc3ncc4c(c3c2)n(-c2cccc(C(F)(F)F)c2)c(=O)n4C)cn1 [SHR8443, 1-methyl-3-(5-(3-methyl-2-oxo-1-(3-(trifluoromethyl)phenyl)-2,3-dihydro-1H–imidazo [4,5-c]quinolin-8-yl)pyridin-2-yl) urea]
IC50 ([2]; read-out: IC50 values, proliferation, range over all tested tumor cells): 2.9 to 13.9 nM
IC50 ([2]; read-out: average (mean) IC50, proliferation, all tested tumor cells): 7.5 nM
IC50 ([2]; read-out: mean IC50 in KRAS/BRAF mutant tumor cells): 7.3 nM
LC3-II production (autophagy) (A549 cells): increased the production of LC3-II in a concentration-dependent manner
cell cycle effect [3]: concentration-dependent G1-phase cell-cycle arrest
IC50 (mTOR): 7.8 ± 1.1 nM
phosphorylation of AKT and S6 ([4]; COLO205 (BRAF mutant), A549 and SW620 (KRAS mutant) cells, 3 h): significantly inhibited
level of phosphorylated ERK (pERK) ([4]; COLO205, A549, SW620 cells): No change
AKT and S6 phosphorylation ([4]; MCF7, MDA-MB-468, BT-474 breast cancer cells, 3 h): inhibited
reversibility of inhibitory activity after removal from medium ([4]; MDA-MB-468 cells, 100 nM for 2 h then drug-free medium): reversible
duration of inhibition of AKT, S6K and S6 phosphorylation ([4]; U-87MG cells, 100 nM): at least 48 h
tolerability (drug-related deaths, body weight loss) [5]: well tolerated
IC50 (A375 cells): 4.1 nM
Cmax ([6]; plasma, read-out: Cmax in plasma): 735 ng/mL
Cmax ([6]; tumor tissue, read-out: Cmax in tumor tissue): 181 ng/g
time of Cmax (plasma and tumor tissue) [6]: 8 h
necrotic/apoptotic cell death [7]: concentration-dependent increase
IC50 ([8]; Homo sapiens, A-375, A375/TR cells, 72 h, SRB assay): 4.9 nM
IC50 ([9]; Homo sapiens, A-375, A375/DR cells, 72 h, SRB assay): 3.4 nM
inhibitory activity against a panel of other protein kinases [10]: little inhibitory activity
IC50 (PI3Kγ): 0.2 ± 0.2 nM
IC50 (PI3Kδ): 0.7 ± 0.2 nM
IC50 (PI3Kα): 0.1 nM
IC50 (PI3Kβ): 15.8 ± 3.8 nM
tumor regression (BT-474 xenografts; 30 mg/kg): one of six tumors
tumor growth inhibition (TGI) (BT-474 xenografts; [12]): 87%
tumor regression (U-87MG xenografts; 30 mg/kg): one of six tumors
tumor growth inhibition (TGI) (U-87MG xenografts; [12]): 95%
tumor growth inhibition (TGI) ([1]; 30 mg/kg oral daily): 79%
tumor growth inhibition (TGI) (PC-3 xenografts): 75%
tumor growth inhibition (TGI) [11]: 86%

CC(C)(C)c1nc(-c2cccc(NS(=O)(=O)c3c(F)cccc3F)c2F)c(-c2ccnc(N)n2)s1 [dabrafenib]
resistance factor (RF) [8]: 61.0
resistance factor (RF) [9]: 839.2

CC(=O)Nc1cccc(-n2c(=O)n(C3CC3)c(=O)c3c(Nc4ccc(I)cc4F)n(C)c(=O)c(C)c32)c1 [trametinib]
resistance factor (RF) [8]: 39.8
resistance factor (RF) [9]: 45.1
